Source: the supplement of paper PMC11208160
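Also: IS621 bridge recombinase in Escherichia coli cells against a fixed T5 target plasmid.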

Assay: recombinant UMI read abundance after kanamycin selection (control-corrected) (log10(CPM+1)); higher = more efficient recombination; extreme values may be limits of the assay; sequences stand for … in AGTGCAGAGAAAATCGGCCAGTTTTCTCTGCCTGCAGTCCGCATGCCGTGGGACCCCTTGGGTTCTAACCTGTTGCCTAGATTTATGCAGCGGACTGCCTTTCTCCCAAAGTGATAAACCGG…AGGTTGGTTTCACT; site = the 11-nt donor
In short: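 Each donor and donor-binding-loop pair was tracked by a 12-nt UMI on a plasmid carrying a promoterless kanamycin gene. With a second plasmid supplying a fixed target and T7-inducible IS621 bridge recombinase, the pool was plated in Escherichia coli on IPTG (0.07 mM) plus kanamycin or unselected. Sequencing of recombinant UMIs across the donor–target junction gave counts expressed as log10(CPM+1) after replicate averaging and control-derived scaling.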
For “TCGTTAGCATGGACCGGTTTTCCCGGTAATCCGTATTTGTG (site GCGTTAGCTCA)”, the “recombinant UMI read abundance (log10)” value was 0.109.
With “TCGTTAGCATGGACCGGTTTTCCCGGTAATCCGTATTTGTG (site TCGTTAGCTCA)” the “recombinant UMI read abundance (log10)” value was 0.255.
For “TCGTTGTCATGGACCGGTTTTCCCGGTAATCCGTATTTGAA (site TCGTTGTCTTT)”, the “recombinant UMI read abundance (log10)” value was 0.876.
In the case of “TCGTTGTCATGGACCGGTTTTCCCGGTAATCCGTATTTGTC (site TCGTTGTCTGA)”, the “recombinant UMI read abundance (log10)” value is reported as 0.41.
For “TCGTTTACATGGACCGGTTTTCCCGGTAATCCGTATTTGCT (site ACGTTTACTAG)”, the “recombinant UMI read abundance (log10)” value was 0.
With “TCGTTTACATGGACCGGTTTTCCCGGTAATCCGTATTTGCT (site CCGTTTACTAG)” the “recombinant UMI read abundance (log10)” value was 0.
For “TCGTTTACATGGACCGGTTTTCCCGGTAATCCGTATTTGCT (site GCGTTTACTAG)”, the “recombinant UMI read abundance (log10)” value was 0.
For “TCGTTTACATGGACCGGTTTTCCCGGTAATCCGTATTTGCT (site TCGTTTACTAG)”, the “recombinant UMI read abundance (log10)” value was 1.68.
With “TCTAACACATGGACCGGTTTTCCCGGTAATCCGTATTTGTC (site TCTAACACTGA)” the “recombinant UMI read abundance (log10)” value was 0.
For “TCTAATACATGGACCGGTTTTCCCGGTAATCCGTATTTGGC (site ACTAATACTGC)”, the “recombinant UMI read abundance (log10)” value was 0.
With “TCTAATACATGGACCGGTTTTCCCGGTAATCCGTATTTGGC (site CCTAATACTGC)” the “recombinant UMI read abundance (log10)” value was 0.
With “TCTAATACATGGACCGGTTTTCCCGGTAATCCGTATTTGGC (site GCTAATACTGC)” the “recombinant UMI read abundance (log10)” value was 0.
With “TCTAATACATGGACCGGTTTTCCCGGTAATCCGTATTTGGC (site TCTAATACTGC)” the “recombinant UMI read abundance (log10)” value was 0.
In the case of “TCTAATACATGGACCGGTTTTCCCGGTAATCCGTATTTGGT (site TCTAATACTAC)”, the “recombinant UMI read abundance (log10)” value is reported as 0.0331.
With “TCTAATTCATGGACCGGTTTTCCCGGTAATCCGTATTTGCC (site TCAAATTCTGG)” the “recombinant UMI read abundance (log10)” value was 0.
For “TCTAATTCATGGACCGGTTTTCCCGGTAATCCGTATTTGCC (site TCCAATTCTGG)”, the “recombinant UMI read abundance (log10)” value was 0.
In the case of “TCTAATTCATGGACCGGTTTTCCCGGTAATCCGTATTTGCC (site TCGAATTCTGG)”, the “recombinant UMI read abundance (log10)” value is reported as 0.
In the case of “TCTAATTCATGGACCGGTTTTCCCGGTAATCCGTATTTGCC (site TCTAATTCTGG)”, the “recombinant UMI read abundance (log10)” value is reported as 0.
For “TCTACCGCATGGACCGGTTTTCCCGGTAATCCGTATTTGCG (site TCAACCGCTCG)”, the “recombinant UMI read abundance (log10)” value was 0.00715.
For “TCTACCGCATGGACCGGTTTTCCCGGTAATCCGTATTTGCG (site TCCACCGCTCG)”, the “recombinant UMI read abundance (log10)” value was 0.0035.
With “TCTACCGCATGGACCGGTTTTCCCGGTAATCCGTATTTGCG (site TCGACCGCTCG)” the “recombinant UMI read abundance (log10)” value was 0.0889.
In the case of “TCTACCGCATGGACCGGTTTTCCCGGTAATCCGTATTTGCG (site TCTACCGCTCG)”, the “recombinant UMI read abundance (log10)” value is reported as 0.0133.
With “TCTAGAACATGGACCGGTTTTCCCGGTAATCCGTATTTGTC (site TCTAGAACTGA)” the “recombinant UMI read abundance (log10)” value was 0.
With “TCTAGGCCATGGACCGGTTTTCCCGGTAATCCGTATTTGGA (site TCTAGGCCTTC)” the “recombinant UMI read abundance (log10)” value was 0.0125.
In the case of “TCTAGTGCATGGACCGGTTTTCCCGGTAATCCGTATTTGGT (site ACTAGTGCTAC)”, the “recombinant UMI read abundance (log10)” value is reported as 0.0111.
With “TCTAGTGCATGGACCGGTTTTCCCGGTAATCCGTATTTGGT (site CCTAGTGCTAC)” the “recombinant UMI read abundance (log10)” value was 0.229.
In the case of “TCTAGTGCATGGACCGGTTTTCCCGGTAATCCGTATTTGGT (site GCTAGTGCTAC)”, the “recombinant UMI read abundance (log10)” value is reported as 0.
For “TCTAGTGCATGGACCGGTTTTCCCGGTAATCCGTATTTGGT (site TCTAGTGCTAC)”, the “recombinant UMI read abundance (log10)” value was 0.0256.
In the case of “TCTATAACATGGACCGGTTTTCCCGGTAATCCGTATTTGGG (site TCTATAACTCC)”, the “recombinant UMI read abundance (log10)” value is reported as 0.0262.
With “TCTATAGCATGGACCGGTTTTCCCGGTAATCCGTATTTGAC (site TCTATAGCTGT)” the “recombinant UMI read abundance (log10)” value was 0.
For “TCTGAAGCATGGACCGGTTTTCCCGGTAATCCGTATTTGGT (site TCTGAAGCTAC)”, the “recombinant UMI read abundance (log10)” value was 0.00288.
For “TCTGAATCATGGACCGGTTTTCCCGGTAATCCGTATTTGAC (site TCTGAATCTGT)”, the “recombinant UMI read abundance (log10)” value was 0.
